Experimental data from EP3967319A1, “COMPOSITION FOR SKIN PROTECTION COMPRISING KAEMPFEROL SACCHARIDES COMPOUNDS” (Amorepacific Corporation, priority 2020, dated 2022).

How the values were obtained:
[1] = tested on: 3D skin models (skin equivalents); test: 3D skin models (skin equivalents) from senescent NHDFs, histology and immunohistochemistry; format: cell-based, human; details: BX-795 100 nM, FIGS. 10A-10B
Method: 3D skin models (skin equivalents) were prepared from young NHDFs (PDL 12) or senescent NHDFs induced into senescence by doxorubicin and IGF-1 or repeated plating (replicative senescence, PDL 57) and were exposed to DMSO or BX795. The treatment concentrations are as follows: doxorubicin ([…]), IGF-1 (100 ng/mL), BX-795 (100 nM).
The indicated proteins were detected by immunohistochemistry. The results are from three representative experiments. Scale bar = 50 µm.
Paraffin samples were dewaxed in xylene and rehydrated through a descending ethanol to water series (3 minutes per solution). […] The sections were then incubated with water/1% H2O2 for 30 minutes to block endogenous peroxidase, rinsed with water and PBS/0.05% Tween 20 for 5 minutes, and incubated with PBS/10% goat serum (Dako, Glostrup, Denmark) for 20 minutes before exposure to the following antibodies overnight at 4 °C; Primary antibodies are: anti-KRT 10 (Biolegend, San Diego, CA), anti-FLG (Abcam), anti-MMP-1(Abcam) and anti-Ki67 (Abcam). […]
Finally, the sections were dehydrated in graded ethanol, cleared in xylene and mounted in Cytoseal 60 (Thermo Scientific, Waltham, MA). […] Tissue sections were incubated with COL17A1 (Abcam) and laminin-5 (Santa Cruz Biotechnology) in Dako fluorescence mounting medium (Dako) at 4 °C overnight. […]

[2] = tested on: GRO, GROα, IL-6, IL-8, MCP-1 to 3 and RANTES; test: Cytokine antibody array of conditioned media of skin equivalents (SASP); format: cell-based, human; details: skin equivalents from either type of senescent NHDFs, BX-795 100 nM, versus vehicle-treated; FIGS. 11A-11B
Method: PDK1 inhibition inhibits SASP in skin equivalents. 3D skin models (skin equivalents) were prepared from young NHDFs (PDL 12) or senescent NHDFs induced into senescence by doxorubicin and IGF-1 or repeated plating (replicative senescence, PDL 57), and were exposed to DMSO or BX795. The treatment concentrations are as follows: doxorubicin ([…]), IGF-1 (100 ng/mL), BX-795 (100 nM).
Mean ± SD (n = 3), ***P < 0.001 compared to DMSO control senescent cells by one-way analysis of variance.

[3] = tested on: Human epidermis models (EpiDerm™ EPI-201); test: Improvement of skin barrier in 3D organotypic skin epidermis (immunostaining of barrier markers); format: cell-based; details: old donor epidermis model, 3 µM for 4 days
Method: Human epidermis models (EpiDerm™ EPI-201; […] The human epidermis model derived from the old donor was treated with the kaempferol tetrasaccharide represented by Chemical Formula 1 at 3 µM for 4 days. Paraffin blocks were prepared after fixing with 10% neutral buffered formalin.
After reacting with anti-KRT 10 (Biolegend, San Diego, CA), anti-FLG (Novus Biologicals, Centennial CO, USA), anti-Involucrin and anti-Ki67 (Abcam) antibodies, the expression of the antibodies was analyzed using a microscope. Specifically, the epidermal tissue derived from the young donor (Young) and the epidermal tissue derived from the old donor (Old) were treated with the test substance and then stained with the antibodies described above. The result is shown in FIG. 4, FIGS. 5A-5B and FIGS. 6A-6C. FIGS. 5A-5B and FIGS. 6A-6C show the result of quantifying the result of FIG. 4.

[4] = tested on: MMP-1; test: MMP-1 ELISA assay in UVB-irradiated HDF cells; format: cell-based, human; details: UVB 15 mJ/cm^2, 2 µM or 3 µM, 48 hours, compared to Chemical Formulas 5 and 7 or retinoic acid (RA), FIG. 3
Method: HDF cells were seeded onto a 24-well plate at a concentration of 2.5x10^4 cells/well and were culture for 24 hours under a cell culturing condition. Then, the cells were cultured for 48 hours after treating with a test substance diluted in FBS-free DMEM. After washing with Dulbecco's phosphate-buffered saline (DPBS) and irradiating UVB (15 mJ/cm^2), the medium was replaced with the test substance (2 µM or 3 µM) diluted in DMEM and the cells were cultured for 48 hours. Then, the supernatant was recovered and the amount of MMP-1 was measured using a human total MMP-1 ELISA kit (R&D Systems).

[5] = tested on: senescence marker SA-beta-Gal; test: Expression of senescence marker SA-beta gal in senescent skin cells (cellular senescence assay kit); format: cell-based, human; details: senescent NHDF (passage 37), 3 µM for 7 days; control 78± 5.2
Method: Normal human dermal fibroblasts (NHDF; Lonza, Switzerland) were cultured in Dulbecco's modified Eagle's medium (DMEM, GIBCO 1210-0038) containing 10% fetal bovine serum, in a 5% CO2 incubator at 37 °C. Cells at passages 6-9 were denoted as young cells, and they were subcultured by 1:5 subculturing until passage 37 to obtain senescent dermal fibroblasts. The senescent skin cells of (1) were treated with DMSO, the compounds repressed by Chemical Formula 1, 2, 3, 4, 5, 6, 7 and 8, kaempferol 3-O-β-rutinoside (Chemical Formula 9) or kaempferol 7-O-β-D-glucopyranoside (Chemical Formula 10) at 3 µM for 7 days. [drawing 30] [drawing 31] On day 8, the cells were washed with PBS and stained with a fixative and a stain provided together with a cellular senescence assay kit (Cell Biolabs, Inc., San Diego, CA, USA) at 37 °C for 16 hours. On the next day, after washing with PBS and applying a 20% glycerol solution, the number of cells stained green was counted and the degree of expression of the senescence marker SA-beta-Gal was evaluated.

| Compound | effect of inhibiting MMP-1 expression [4] | degree of expression of the senescence marker SA-beta-Gal (number of cells stained green) [5] | other results |
| --- | --- | --- | --- |
| O=C(NCCCNc1nc(Nc2cccc(NC(=O)N3CCCC3)c2)ncc1I)c1cccs1 [BX795] |  |  | epidermal thickness in the skin equivalents ([1]; skin equivalents from senescence-induced NHDFs): preserved epidermal thickness; proliferation marker Ki-67 in the epidermis of the skin equivalents ([1]; skin equivalents from senescent NHDFs): markedly increased; GRO, GROα, IL-6, IL-8, MCP-1 to 3 and RANTES in the conditioned medium [2]: less |
| C[C@@H]1O[C@@H](OC[C@H]2O[C@@H](Oc3c(-c4ccc(O)cc4)oc4cc(O)cc(O)c4c3=O)[C@H](O[C@@H]3OC[C@@H](O)[C@H](O)[C@H]3O)[C@@H](O)[C@H]2O)[C@H](O)[C@H](O[C@@H]2OC[C@@H](O)[C@H](O)[C@H]2O)[C@H]1O [Chemical Formula 1, kaempferol-3-O-β-D-xylopyranosyl-(1→3)-O-α-L-rhamnopyranosyl-(1→6)-O-β-D-xylopyranosyl-(1→2)-O-β-D-galactopyranoside] | superior effect of inhibiting MMP-1 expression | 38 ± 10.4 | epidermal thickness ([3]; FIG. 5A): recovered to levels comparable to those of the young epidermal tissue; expression of the regeneration marker (KI67) ([3]; FIG. 5B): recovered to levels comparable to those of the young epidermal tissue; barrier function (KRT10, FLG, INV) ([3]; FIGS. 6A-6C): recovered to levels comparable to those of the young epidermal tissue |
| C[C@@H]1O[C@@H](OC[C@H]2O[C@@H](Oc3c(-c4ccc(O)cc4)oc4cc(O)cc(O)c4c3=O)[C@H](O[C@@H]3OC[C@@H](O)[C@H](O)[C@H]3O)[C@@H](O)[C@@H]2O)[C@H](O)[C@H](O[C@@H]2OC[C@@H](O)[C@H](O)[C@H]2O)[C@H]1O [Chemical Formula 2, kaempferol-3-O-β-D-xylopyranosyl-(1→3)-O-α-L-rhamnopyranosyl-(1→6)-O-β-D-xylopyranosyl-(1→2)-O-β-D-glucopyranoside] |  | 40 ± 10.4 |  |
| C[C@@H]1O[C@@H](OC[C@H]2O[C@@H](Oc3c(-c4ccc(O)cc4)oc4cc(O)cc(O)c4c3=O)[C@H](O[C@@H]3O[C@H](CO)[C@@H](O)[C@H](O)[C@H]3O)[C@@H](O)[C@H]2O)[C@H](O)[C@H](O[C@@H]2OC[C@@H](O)[C@H](O)[C@H]2O)[C@H]1O [Chemical Formula 3, kaempferol-3-O-β-D-xylopyranosyl-(1→3)-O-α-L-rhamnopyranosyl-(1→6)-O-β-D-glucopyranosyl-(1→2)-O-β-D-galactopyranoside] | superior effect of inhibiting MMP-1 expression | 42 ± 9.7 |  |
| C[C@@H]1O[C@@H](OC[C@H]2O[C@@H](Oc3c(-c4ccc(O)cc4)oc4cc(O)cc(O)c4c3=O)[C@H](O)[C@@H](O)[C@@H]2O)[C@H](O)[C@H](O)[C@H]1O [Kaempferol 3-O-β-rutinoside, kaempferol 3-O-β-rutinoside, reference compound] |  | 81 ± 11.3 |  |
| O=c1c(O)c(-c2ccc(O)cc2)oc2cc(O[C@@H]3O[C@H](CO)[C@@H](O)[C@H](O)[C@H]3O)cc(O)c12 [Kaempferol 7-0-β-D-glucopyranoside, kaempferol 7-O-β-D-glucopyranoside, reference compound] |  | 79± 9.9 |  |
| O=c1c(O)c(-c2ccc(O)cc2)oc2cc(O)cc(O)c12 [Kaempferol] |  | 80 ± 12.1 |  |
| kaempferol-3-O-β-D-xylopyranosyl-(1→3)-O-α-L-rhamnopyranosyl-(1→6)-O-β-D-glucopyranosyl-(1→2)-O-β-D-glucopyranoside [Chemical Formula 4] | superior effect of inhibiting MMP-1 expression | 37 ± 9.1 |  |
